Among the data in patent publication US9687479B2, “Multisubstituted aromatic compounds as serine protease inhibitors” (VERSEON CORPORATION, priority 2013, dated 2017) are IC50 values, retold here.

In this assay the target is Human thrombin (Homo sapiens (Human), UniProt P00734). Nature of the assay: Thrombin protease activity inhibition assay (chromogenic substrate S-2238). The class given is biochemical. The following applies: 3 nM thrombin, 125 μM S-2238, 10 min pre-incubation, RT. As to the method:
The thrombin activity reported herein (e.g., Table A) was obtained as follows. […] Thrombin was assayed in buffer containing 0.05 M Tris (pH 7.4), 0.015 M NaCl and 0.01% PEG-8000. The final concentration of enzyme used was 3 nM thrombin. […] All assays were performed in 96-well microtiter plates at room temperature (RT). […] Inhibitor IC50 values were determined by adding test compound as ten point, three-fold serial dilutions in buffer solution, as known in the art. The plate was read at 10 minutes after substrate addition. The IC50 was calculated by plotting the percent (%) inhibition against compound concentration and fitting the data to a constrained four parameter sigmoidal curve, as known in the art.
As for `O=C(c1cccc2c1OCCO2)n1nc(-c2ccc[nH]c2=O)cc1NCc1ccc(Cl)s1` [Cmpd 108, 3-(5-[(5-chlorothiophen-2-yl)methyl]amino-1-[(2,3-dihydro-1,4-benzodioxin-5-yl)carbonyl]-1H-pyrazol-3-yl)-1,2-dihydropyridin-2-one], the IC50 was below 100 nM. With `O=C(c1cccc2c1OCCO2)n1nc(-c2cccn(Cc3ccco3)c2=O)cc1NCc1ccc(Cl)s1` [Cmpd 110, 3-(5-[(5-chlorothiophen-2-yl)methyl]amino-1-[(2,3-dihydro-1,4-benzodioxin-5-yl)carbonyl]-1H-pyrazol-3-yl)-1-(furan-2-ylmethyl)-1,2-dihydropyridin-2-one] the figure was below 100 nM. With `O=C(c1cccc2c1OCCO2)n1nc(-c2cccn(Cc3ccoc3)c2=O)cc1NCc1ccc(Cl)s1` [Cmpd 111, 3-(5-[(5-chlorothiophen-2-yl)methyl]amino-1-[(2,3-dihydro-1,4-benzodioxin-5-yl)carbonyl]-1H-pyrazol-3-yl)-1-(furan-3-ylmethyl)-1,2-dihydropyridin-2-one] the figure was below 100 nM. As for `O=C(c1cccc2c1OCCO2)n1nc(-c2cccn(Cc3cccnn3)c2=O)cc1NCc1ccc(Cl)s1` [Cmpd 112, 3-(5-[(5-chlorothiophen-2-yl)methyl]amino-1-[(2,3-dihydro-1,4-benzodioxin-5-yl)carbonyl]-1H-pyrazol-3-yl)-1-(pyridazin-3-ylmethyl)-1,2-dihydropyridin-2-one], the figure is below 100 nM; as for `O=C(c1cccc2c1OCCO2)n1nc(-c2cccn(Cc3cccnc3)c2=O)cc1NCc1ccc(Cl)s1` [Cmpd 114, 3-(5-[(5-chlorothiophen-2-yl)methyl]amino-1-[(2,3-dihydro-1,4-benzodioxin-5-yl)carbonyl]-1H-pyrazol-3-yl)-1-(pyridin-3-ylmethyl)-1,2-dihydropyridin-2-one], below 100 nM; as for `O=C(c1cccc2c1OCCO2)n1nc(-c2cccn(Cc3ccncc3)c2=O)cc1NCc1ccc(Cl)s1` [Cmpd 115, 3-(5-[(5-chlorothiophen-2-yl)methyl]amino-1-[(2,3-dihydro-1,4-benzodioxin-5-yl)carbonyl]-1H-pyrazol-3-yl)-1-(pyridin-4-ylmethyl)-1,2-dihydropyridin-2-one], below 100 nM. As for `O=C(c1cccc2c1OCCO2)n1nc(-c2cccn(Cc3ccsc3)c2=O)cc1NCc1ccc(Cl)s1` [Cmpd 118, 3-(5-[(5-chlorothiophen-2-yl)methyl]amino-1-[(2,3-dihydro-1,4-benzodioxin-5-yl)carbonyl]-1H-pyrazol-3-yl)-1-(thiophen-3-ylmethyl)-1,2-dihydropyridin-2-one], the concentration for half-maximal inhibition (IC50) is below 100 nM. With `O=C(c1cccc2c1OCCO2)n1nc(-c2cccn(CCN3CCOCC3)c2=O)cc1NCc1ccc(Cl)s1` [Cmpd 119, 3-(5-[(5-chlorothiophen-2-yl)methyl]amino-1-[(2,3-dihydro-1,4-benzodioxin-5-yl)carbonyl]-1H-pyrazol-3-yl)-1-[2-(morpholin-4-yl)ethyl]-1,2-dihydropyridin-2-one] the figure was below 100 nM; with `Cn1cccc(-c2cc(NCc3ccc(Cl)s3)n(C(=O)c3cccc4c3OCCO4)n2)c1=O` [Cmpd 120, 3-(5-[(5-chlorothiophen-2-yl)methyl]amino-1-[(2,3-dihydro-1,4-benzodioxin-5-yl)carbonyl]-1H-pyrazol-3-yl)-1-methyl-1,2-dihydropyridin-2-one], below 100 nM; with `COc1ccc(C(=O)n2nc(-c3ccc[nH]c3=O)cc2NCc2ccc(Cl)s2)c(OC)c1` [Cmpd 121, 3-(5-[(5-chlorothiophen-2-yl)methyl]amino-1-[(2,4-dimethoxyphenyl)carbonyl]-1H-pyrazol-3-yl)-1,2-dihydropyridin-2-one], below 100 nM. With `COc1ccc(C(=O)n2nc(-c3cccn(Cc4cccnn4)c3=O)cc2NCc2ccc(Cl)s2)c(OC)c1` [Cmpd 124, 3-(5-[(5-chlorothiophen-2-yl)methyl]amino-1-[(2,4-dimethoxyphenyl)carbonyl]-1H-pyrazol-3-yl)-1-(pyridazin-3-ylmethyl)-1,2-dihydropyridin-2-one] the figure was below 100 nM.

For `COc1ccc(C(=O)n2nc(-c3cccn(Cc4ccncc4)c3=O)cc2NCc2ccc(Cl)s2)c(OC)c1` [Cmpd 127, 3-(5-[(5-chlorothiophen-2-yl)methyl]amino-1-[(2,4-dimethoxyphenyl)carbonyl]-1H-pyrazol-3-yl)-1-(pyridin-4-ylmethyl)-1,2-dihydropyridin-2-one], the IC50 is below 100 nM. With `COc1ccc(C(=O)n2nc(-c3cccn(Cc4ncccn4)c3=O)cc2NCc2ccc(Cl)s2)c(OC)c1` [Cmpd 128, 3-(5-[(5-chlorothiophen-2-yl)methyl]amino-1-[(2,4-dimethoxyphenyl)carbonyl]-1H-pyrazol-3-yl)-1-(pyrimidin-2-ylmethyl)-1,2-dihydropyridin-2-one] the figure was above 100000 nM. As for `COc1ccc(C(=O)n2nc(-c3cccn(Cc4cccs4)c3=O)cc2NCc2ccc(Cl)s2)c(OC)c1` [Cmpd 129, 3-(5-[(5-chlorothiophen-2-yl)methyl]amino-1-[(2,4-dimethoxyphenyl)carbonyl]-1H-pyrazol-3-yl)-1-(thiophen-2-ylmethyl)-1,2-dihydropyridin-2-one], the IC50 was below 100 nM.

Take `COc1ccc(C(=O)n2nc(-c3cccn(Cc4ccsc4)c3=O)cc2NCc2ccc(Cl)s2)c(OC)c1` [Cmpd 130, 3-(5-[(5-chlorothiophen-2-yl)methyl]amino-1-[(2,4-dimethoxyphenyl)carbonyl]-1H-pyrazol-3-yl)-1-(thiophen-3-ylmethyl)-1,2-dihydropyridin-2-one]: the IC50 was below 100 nM. With `COCCn1cccc(-c2cc(NCc3ccc(Cl)s3)n(C(=O)c3ccccc3OC)n2)c1=O` [Cmpd 133, 3-(5-[(5-chlorothiophen-2-yl)methyl]amino-1-[(2-methoxyphenyl)carbonyl]-1H-pyrazol-3-yl)-1-(2-methoxyethyl)-1,2-dihydropyridin-2-one] the figure was below 100 nM; with `COc1ccccc1C(=O)n1nc(-c2cccn(CCc3ccccc3)c2=O)cc1NCc1ccc(Cl)s1` [Cmpd 134, 3-(5-[(5-chlorothiophen-2-yl)methyl]amino-1-[(2-methoxyphenyl)carbonyl]-1H-pyrazol-3-yl)-1-(2-phenylethyl)-1,2-dihydropyridin-2-one], below 100 nM; with `COc1ccccc1C(=O)n1nc(-c2cccn(Cc3ccco3)c2=O)cc1NCc1ccc(Cl)s1` [Cmpd 135, 3-(5-[(5-chlorothiophen-2-yl)methyl]amino-1-[(2-methoxyphenyl)carbonyl]-1H-pyrazol-3-yl)-1-(furan-2-ylmethyl)-1,2-dihydropyridin-2-one], below 100 nM.

`COc1ccccc1C(=O)n1nc(-c2cccn(Cc3ccoc3)c2=O)cc1NCc1ccc(Cl)s1` [Cmpd 136, 3-(5-[(5-chlorothiophen-2-yl)methyl]amino-1-[(2-methoxyphenyl)carbonyl]-1H-pyrazol-3-yl)-1-(furan-3-ylmethyl)-1,2-dihydropyridin-2-one] registered an IC50 below 100 nM. With `COc1ccccc1C(=O)n1nc(-c2cccn(Cc3ccc4ccccc4c3)c2=O)cc1NCc1ccc(Cl)s1` [Cmpd 137, 3-(5-[(5-chlorothiophen-2-yl)methyl]amino-1-[(2-methoxyphenyl)carbonyl]-1H-pyrazol-3-yl)-1-(naphthalen-2-ylmethyl)-1,2-dihydropyridin-2-one] the figure was below 100 nM; with `COc1ccccc1C(=O)n1nc(-c2cccn(Cc3ccccn3)c2=O)cc1NCc1ccc(Cl)s1` [Cmpd 139, 3-(5-[(5-chlorothiophen-2-yl)methyl]amino-1-[(2-methoxyphenyl)carbonyl]-1H-pyrazol-3-yl)-1-(pyridin-2-ylmethyl)-1,2-dihydropyridin-2-one], below 100 nM; with `COc1ccccc1C(=O)n1nc(-c2cccn(Cc3ccncc3)c2=O)cc1NCc1ccc(Cl)s1` [Cmpd 141, 3-(5-[(5-chlorothiophen-2-yl)methyl]amino-1-[(2-methoxyphenyl)carbonyl]-1H-pyrazol-3-yl)-1-(pyridin-4-ylmethyl)-1,2-dihydropyridin-2-one], below 100 nM. As for `COc1ccccc1C(=O)n1nc(-c2cccn(Cc3ncccn3)c2=O)cc1NCc1ccc(Cl)s1` [Cmpd 142, 3-(5-[(5-chlorothiophen-2-yl)methyl]amino-1-[(2-methoxyphenyl)carbonyl]-1H-pyrazol-3-yl)-1-(pyrimidin-2-ylmethyl)-1,2-dihydropyridin-2-one], the figure is below 100 nM. Consider `COc1ccccc1C(=O)n1nc(-c2cccn(Cc3cccs3)c2=O)cc1NCc1ccc(Cl)s1` [Cmpd 143, 3-(5-[(5-chlorothiophen-2-yl)methyl]amino-1-[(2-methoxyphenyl)carbonyl]-1H-pyrazol-3-yl)-1-(thiophen-2-ylmethyl)-1,2-dihydropyridin-2-one], for which the IC50 was below 100 nM. The molecule `COc1ccccc1C(=O)n1nc(-c2cccn(Cc3ccsc3)c2=O)cc1NCc1ccc(Cl)s1` [Cmpd 144, 3-(5-[(5-chlorothiophen-2-yl)methyl]amino-1-[(2-methoxyphenyl)carbonyl]-1H-pyrazol-3-yl)-1-(thiophen-3-ylmethyl)-1,2-dihydropyridin-2-one] yielded a half-maximal inhibitory concentration (IC50) below 100 nM. As for `COc1ccccc1C(=O)n1nc(-c2cccn(CCN3CCOCC3)c2=O)cc1NCc1ccc(Cl)s1` [Cmpd 146, 3-(5-[(5-chlorothiophen-2-yl)methyl]amino-1-[(2-methoxyphenyl)carbonyl]-1H-pyrazol-3-yl)-1-[2-(morpholin-4-yl)ethyl]-1,2-dihydropyridin-2-one], the IC50 was below 100 nM. As for `COc1ccccc1C(=O)n1nc(-c2cccn(C)c2=O)cc1NCc1ccc(Cl)s1` [Cmpd 147, 3-(5-[(5-chlorothiophen-2-yl)methyl]amino-1-[(2-methoxyphenyl)carbonyl]-1H-pyrazol-3-yl)-1-methyl-1,2-dihydropyridin-2-one], the figure is below 100 nM.

Usually IC50 stands for the midpoint of a concentration-inhibition curve.
